Laboratory results taken from EP4620956A1, “PARP1 INHIBITORS” (Zhejiang Yangli Pharmaceutical Technology Co., Ltd., priority 2022, dated 2024).

Target: T1, PARP7 (Homo sapiens, UniProt Q7Z3E1)
T1 construct: purchased BPS 80527
T1 sequence (Q7Z3E1 1-657): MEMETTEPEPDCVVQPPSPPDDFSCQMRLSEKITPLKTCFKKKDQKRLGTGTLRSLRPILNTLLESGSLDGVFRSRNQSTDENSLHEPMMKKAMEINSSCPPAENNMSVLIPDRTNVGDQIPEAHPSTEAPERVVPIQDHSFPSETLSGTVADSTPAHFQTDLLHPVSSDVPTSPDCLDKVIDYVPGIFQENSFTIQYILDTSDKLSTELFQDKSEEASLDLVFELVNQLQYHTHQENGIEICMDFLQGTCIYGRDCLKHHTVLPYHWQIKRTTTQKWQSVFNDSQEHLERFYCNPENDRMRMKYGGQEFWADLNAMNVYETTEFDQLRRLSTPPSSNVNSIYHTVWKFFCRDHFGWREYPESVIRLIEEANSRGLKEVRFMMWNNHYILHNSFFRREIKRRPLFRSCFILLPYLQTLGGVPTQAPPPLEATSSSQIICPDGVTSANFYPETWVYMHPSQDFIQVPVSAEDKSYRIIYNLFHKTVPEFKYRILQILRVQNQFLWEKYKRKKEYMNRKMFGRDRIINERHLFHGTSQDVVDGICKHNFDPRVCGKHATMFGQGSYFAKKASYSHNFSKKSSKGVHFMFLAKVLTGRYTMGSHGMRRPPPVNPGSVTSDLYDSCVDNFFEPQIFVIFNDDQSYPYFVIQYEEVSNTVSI
Test: Inhibition of PARP7 enzyme activity (chemiluminescent assay kit)
Format: biochemical

[2H]C([2H])([2H])NC(=O)c1ccc(N2CCN(Cc3cnc4c(N)c(CC)c(=O)[nH]c4c3)CC2)c(F)n1 [Example 4, 5-(4-((8-Amino-7-ethyl-6-oxo-5,6-dihydro-1,5-naphthyridin-3-yl)methyl)piperazin-1-yl)-6-fluoro-N-(methyl-d3)picolinamide]
IC50 (enzyme activity): > 10 µM | PARP7 multiple vs PARP1 (ratio relative to the PARP1 enzyme activity): ∞
